Laboratory results published in patent US4256736A, “Psychopharmacological peptides” (Akzona Incorporated, priority 1978, dated 1981).
“Also recorded” adds a separate entry of the source.

Assays:
opiate receptor = conditions: in words, prior art section; cited from earlier work
rats [1] = conditions: in words, prior art section; cited from earlier work
[2] = in words; can be antagonised by naloxone; cited from earlier work
rats [3] = assay: Pole-jumping avoidance behavior (pole climbing test), extinction of the flight response; type: in vivo, rat; conditions: mean ± S.E.
Text: Rats were trained to jump onto a pole within 5 sec. following presentation of the conditioned stimulus (CS) which was a light on top of the cage. […] 10 trials a day were given in one session with an average intertrial interval of 60 sec. Intervals between trials were 40, 60 and 80 sec. which were presented in a random fashion. Rats were trained for 4 days. Extinction was studied the day following acquisition. During this first post-acquisition session failure to respond within 5 sec. to the CS were not followed by the UCS. All rats were given a 10 trial extinction session. Those animals which made 8 or more avoidances were used for further experimentation. These rats received peptide or placebo (saline) in a volume of 0.5 ml per rat s.c. immediately after completion of the first extinction session. Extinction was studied again 2 and 4 h. later.

rats [4] = assay: Ambulation of rats; type: in vivo, rat; conditions: in words, higher dosages
[5] = in words; cited from earlier work
melanocytes = conditions: in words; cited from earlier work
[6] = 0.1 μg per rat s.c., 0 h (first extinction session, injection immediately after)
[7] = 0.1 μg per rat s.c., 2 h after injection
[8] = 0.1 μg per rat s.c., 4 h after injection
[9] = 0.3 μg per rat s.c., 0 h (first extinction session, injection immediately after)
[10] = 0.3 μg per rat s.c., 2 h after injection
[11] = 0.3 μg per rat s.c., 4 h after injection
[12] = 0.03 μg per rat s.c., 0 h (first extinction session, injection immediately after)
[13] = 0.03 μg per rat s.c., 2 h after injection
[14] = 0.03 μg per rat s.c., 4 h after injection

For β-LPH-(61-69), the “affinity for the opiate receptor” value (opiate receptor) is given as “a certain affinity for the opiate receptor” and the “effect on extinction of the (active) flight response in the pole-climbing test” value (“effect on extinction” below) (rats [1]) is given as “inhibit the extinction of the flight response”.
For “β-endorphin (YGGFMTSEKSQTPLVTLFKNAIIKNAYKKGE; Beta-endorphin; UniProt P01189 237-267, looked up)”, the analgesic activity [2] is listed as “possess analgesic activity” and the “effect on extinction” value (rats [1]) is listed as “inhibits the extinction of the (active) flight response”.
In the case of Leu-enkephalin, the “affinity for the opiate receptor” value (opiate receptor) is listed as “Affinity for the opiate receptor”.
For “H-GGFMTSEKSQTPLVTL-OH [[Des-Tyr^1]γ-endorphin, H-Gly-Gly-Phe-Met-Thr-Ser-Glu-Lys-Ser-Gln-Thr-Pro-Leu-Val-Thr-Leu-OH]”, the “Extinction (10 trials)” value (rats [3]; 0.01 μg per rat s.c., 0 h (first extinction session, injection immediately after)) was 9.0 ± 0.3, the “Extinction (10 trials)” value (rats [3]; 0.01 μg per rat s.c., 2 h after injection) was 6.2 ± 0.4 and the “Extinction (10 trials)” value (rats [3]; 0.01 μg per rat s.c., 4 h after injection) was 4.2 ± 0.7. The “Extinction (10 trials)” value (rats [3]; [6]) was 8.8 ± 0.4, the “Extinction (10 trials)” value (rats [3]; [7]) was 2.8 ± 1.0 and the “Extinction (10 trials)” value (rats [3]; [8]) was 1.2 ± 0.5. The “Extinction (10 trials)” value (rats [3]; [9]) was 9.3 ± 0.5, the “Extinction (10 trials)” value (rats [3]; [10]) was 3.0 ± 0.7 and the “Extinction (10 trials)” value (rats [3]; [11]) was 1.3 ± 0.5.
In the case of γ-endorphin, the “Extinction (10 trials)” value (rats [3]; [12]) is reported as 8.8 ± 0.3, the “Extinction (10 trials)” value (rats [3]; [13]) is reported as 6.7 ± 0.8 and the “Extinction (10 trials)” value (rats [3]; [14]) is reported as 4.0 ± 0.7. The “Extinction (10 trials)” value (rats [3]; [6]) was 9.3 ± 0.3, the “Extinction (10 trials)” value (rats [3]; [7]) was 5.5 ± 0.6 and the “Extinction (10 trials)” value (rats [3]; [8]) was 2.3 ± 0.4. The “Extinction (10 trials)” value (rats [3]; [9]) was 9.0 ± 0.4, the “Extinction (10 trials)” value (rats [3]; [10]) was 4.6 ± 0.3 and the “Extinction (10 trials)” value (rats [3]; [11]) was 0.8 ± 0.4. The “effect on extinction” value (rats [1]) was “accelerate the extinction of the flight response” and the reduction in ambulation (rats [4]) was “could not be observed”.
In the case of Met-enkephalin, the “affinity for the opiate receptor” value (opiate receptor) is given as “a certain affinity for the opiate receptor” and the “effect on extinction” value (rats [1]) is given as “inhibit the extinction of the flight response”.
In the case of α-endorphin, the “affinity for the opiate receptor” value (opiate receptor) is listed as “a certain affinity for the opiate receptor”, the “Extinction (10 trials)” value (rats [3]; [9]) is listed as 9.0 ± 0.4 and the “Extinction (10 trials)” value (rats [3]; [10]) is listed as 8.3 ± 0.3. The “Extinction (10 trials)” value (rats [3]; [11]) was 7.8 ± 0.3, the “effect on extinction” value (rats [1]) was “inhibit the extinction of the flight response; also recorded: retarded this extinction of the flight response” and the reduction in ambulation (rats [4]) was “could not be observed”.
In the case of β-Lipotropin, the fat-mobilising activity [5] is given as “shows fat-mobilising activity”.
In the case of β-melanotropin, the “influencing the pigmentation of the skin” value (melanocytes) is listed as “capable of influencing the pigmentation of the skin by stimulating the melanocytes”.
With O=C(CCCN1CCC(O)(c2ccc(Cl)cc2)CC1)c1ccc(F)cc1 [Haloperidol] the “Extinction (10 trials)” value (rats [3]; [12]) was 9.3 ± 0.3, the “Extinction (10 trials)” value (rats [3]; [13]) was 6.5 ± 0.7 and the “Extinction (10 trials)” value (rats [3]; [14]) was 4.0 ± 0.6. For the same compound, the “Extinction (10 trials)” value (rats [3]; [6]) was 9.5 ± 0.4, the “Extinction (10 trials)” value (rats [3]; [7]) was 3.0 ± 0.0 and the “Extinction (10 trials)” value (rats [3]; [8]) was 0.5 ± 0.4.
For D-Ala-Met-enkephalin, the “affinity for the opiate receptor” value (opiate receptor) is listed as “Affinity for the opiate receptor”.
In the case of γ-lipotropin, the fat-mobilising activity [5] is listed as “possesses fat-mobilising properties”.
